In US12150929B2, “Compositions and methods for the treatment of depression” (Janssen Pharmaceuticals, Inc., priority 2021, dated 2024):
Read-outs that look alike come from different tables or passages of the source.

What was measured:
[1] = Maximum plasma concentration (Cmax) of aticaprant, Example 1; format: in vivo; settings: human, oral, 10 mg, eITT, read-out: Cmax, Arithmetic Mean (SD)
Experimental: Aticaprant was supplied as 5-mg capsules. Placebo was supplied as matching capsules. All subjects took 2 capsules QD. The capsules were taken daily from Day 2 to Day 78 in fasting condition with some water (fasting for at least 4 hours before dosing). Medication was taken before breakfast. If the subject has forgotten to take the medication before breakfast, this was done before the next following meal, at the latest at dinner of the same day. If the subject remembered later than dinner, the dose of that day was omitted, and the subject took the dose before breakfast on the next day.
Cmax is defined as maximum plasma concentration of aticaprant. […] Here ‘N’ (number of subjects analyzed) includes the number of subjects evaluable for this endpoint. Here ‘n’ (number analyzed) included all subjects evaluable for specified time point categories.

Weight change, Example 1 = format: in vivo, human
Experimental: Treatment with aticaprant as described herein has several advantages over the treatments in the art. […] As used herein, the term “weight gain” refers to an increase in the weight of patient, relative to the weight of the patient before taking aticaprant or the weight of the patient that is assessed at the time of the initial administration of the aticaprant. In certain embodiments, the patient may actually see a decrease in overall weight, relative to the weight of the patient before taking aticaprant.
At the lead-in baseline timepoint, the mean weight for subjects in the placebo group was 76.17 kg compared to 78.66 in the aticaprant group. After 6 weeks in the double-blind treatment phase, the mean weight in the placebo group was 75.75 kg compared to 78.57 kg in the aticaprant group. […] This is unexpected because other adjunctive treatments for MDD result in a mean weight increase. See, Thase M, et al. J Clin Psych. 2015: 76(9), 1224-1231; Thase, J Clin Psych. 2015, 76(9): 1232-1240; El Khalili, Int J Neuropsychopharmacol. 2010, 13, 917-932; Marcus, J. Clin. Psychopharmacol. […] Nashville, Tenn, ACNP, 2008; Earley, American College of Neuropsychopharmacology, 2007, Annual Meeting Abstracts (Boca Raton, Fla, Dec. 9-13, 2007). Nashville, TN, ACNP, 2007). See, Table 29.

SMILES: Cc1cc(C)cc(C2CCCN2Cc2ccc(Oc3ccc(C(N)=O)cc3F)cc2)c1 (centres unmarked) [aticaprant, 3-fluoro-4-4-2-(3,5-dimethylphenyl)pyrrolidin-1-yl-methylphenoxybenzamide]
- Cmax ([1]; Week 1 (n = 56)): 32.7 ± 10.9 ng/mL
- Cmax ([1]; Week 3 (n = 56)): 33.5 ± 11.1 ng/mL
- Cmax ([1]; Week 6 (n = 56)): 34.3 ± 11.1 ng/mL
- Mean weight, Lead-in Baseline, mean (SE) (Weight change, Example 1; Lead-in Baseline, n = 85): 78.66 (1.65) kg
- Mean weight, Screening, mean (SE) (Weight change, Example 1; Screening, n = 85): 78.42 (1.65) kg
- Mean weight, Withdrawal Baseline, mean (SE) (Weight change, Example 1; Withdrawal Baseline (after 6 weeks double-blind treatment), n = 85): 78.57 (1.71) kg
- Mean weight, Relative % Change (Weight change, Example 1; Withdrawal vs Lead-in, n = 85): −0.11%
- mean weight (Weight change, Example 1; after 6 weeks in the double-blind treatment phase): 78.57 kg
- weight over the 6-week double blind treatment period (Weight change, Example 1; both groups): remained relatively stable
- mean weight (Weight change, Example 1; lead-in baseline timepoint): 78.66 kg
- Mean weight, Absolute Change (Withdrawal − Lead-in) (Weight change, Example 1; n = 85): -0.09 kg
